Data taken from patent US7655816B2, “Method for stabilizing menthyl lactate” (Millennium Specialty Chemicals, priority 2007, dated 2010).

Assay type: physicochemical
Settings: for GC purity after storage / acid number after storage / appearance after storage / odor after storage: after storage for 39 months in a closed glass jar
Text: Precipitation according to the method of the invention provides menthyl lactate having improved stability compared with that of an unprecipitated sample. By “improved stability,” we mean that one or more important physical properties of the menthyl lactate becomes more constant as a function of time as a consequence of precipitation when compared with menthyl lactate that has not been precipitated according to the method. Important physical properties include, without limitation, appearance, dimensional stability, color, texture, organoleptic properties (odor, flavor), melting point, acid number, GC purity, optical rotation, pH, solubility, and the like. Preferably, the ML retains its desirable physical property or properties even after prolonged storage. “Prolonged” depends on the particular application, but it is preferably at least one week, more preferably at least one month, and most preferably at least one year.
After storage for 39 months in a closed glass jar, the product is evaluated for quality.
A sample of solid menthyl lactate from the same batch that was used in Example 1 is stored under similar conditions for the same 39 months. […] Mp: 39.3° C.; GC purity: <96%; acid number: 32 mg KOH/g.

| melting point after storage | GC purity after storage | acid number after storage | appearance after storage | odor after storage | Compound |
| --- | --- | --- | --- | --- | --- |
| 36.7 °C | 92% | 20 mg KOH/g | shrinks | strong, pungent acidic odor | CC1CCC(C(C)C)C(OC(=O)C(C)O)C1 (stereo not drawn) [Comparative Example 3, menthyl lactate] |
| 39.3 °C | < 96% | 32 mg KOH/g | – | strong, pungent acidic odor | CC1CCC(C(C)C)C(OC(=O)C(C)O)C1 (stereo not drawn) [compound 2, menthyl lactate] |

Further lines, the compound ahead of its results:

| Compound | melting point after storage | GC purity after storage | acid number after storage | appearance after storage | odor after storage |
| --- | --- | --- | --- | --- | --- |
| CC1CCC(C(C)C)C(OC(=O)C(C)O)C1 (stereo not drawn) [Comparative Example 4, menthyl lactate] | 43.6 °C | – | 0.27 mg KOH/g | – | some deterioration of odor quality |
| CC1CCC(C(C)C)C(OC(=O)C(C)O)C1 (stereo not drawn) [Example 1, menthyl lactate] | 43.9 °C | ≥ 99.8% | 0.15 mg KOH/g | fine, white crystalline powder | faint, minty |
| CC1CCC(C(C)C)C(OC(=O)C(C)O)C1 (stereo not drawn) [compound 5, menthyl lactate] | 43.7 °C | 97% | 0.32 mg KOH/g | – | strong, pungent acidic odor |
